{"source": "patent US10500286B2", "about": "“CCK2R-drug conjugates” (priority 2015, dated 2019)", "key": {"HEK-CCK2R cells [1]": {"test_system": "HEK-CCK2R cells", "assay_type": "cell-based", "details": "2 h pulse at 37 C, chase up to 72 h, [3H]thymidine incorporation relative to untreated controls", "description": "(§1) CCK2R-positive HEK-CCK2R cells were seeded in 12-well Falcon plates and allowed to form nearly confluent monolayers overnight in RPMI/HIFCS. Each well then received increasing concentrations of CCK2R targeted conjugates (n=4). Cells were pulsed for 2 h at 37° C., rinsed with medium, and then chased in fresh medium up to 72 h. Spent medium was aspirated and replaced with medium containing [^3H]thymidine. Following a 2 h incubation, cells were washed with PBS and then treated with 5% trichloroacetic acid. The trichloroacetic acid was aspirated and cells were solubilized in 0.25 N sodium hydroxide. Each solubilized sample were transferred to scintillation vials containing Ecolume scintillation cocktail and counted in a liquid scintillation counter. Final results were expressed as the percentage of [^3H]thymidine incorporation relative to untreated controls and IC50 values calculated using GraphPad Prism software."}, "HEK-CCK2R tumor cells": {"test_system": "HEK-CCK2R tumor cells", "assay": "Antitumor activity in HEK-CCK2R tumor model", "assay_type": "in vivo, mice", "details": "2 μmol/kg", "description": "(§2) Female Balb/c nu/nu mice were fed ad libitum with 2918 irradiated Teklad Global 18% Rodent Diet for the duration of the experiment. HEK-CCK2R tumor cells were inoculated subcutaneously at the right flank of each mouse. Mice were dosed through the lateral tail vein under sterile conditions in a volume of 200 μL of phosphate-buffered saline (PBS).\nGrowth of each s.c. tumor was followed by measuring the tumor two times per week. Tumors were measured in two perpendicular directions using Vernier calipers, and their volumes were calculated as 0.5×L×W^2, where L=measurement of longest axis in mm and W=measurement of axis perpendicular to L in mm.\nTreatment with 2 μmol/kg of EC1947 (Sulfated CCK8-Tubulysin B SMDC), three times a week for two weeks produced maximal anti-tumor activity with 80% cures and 20% CR's. In comparison, EC1868 (CCK8-PEG3-Tubulysin B SMDC) and EC1873 (CCK8-PEG12-Tubulysin B SMDC) at the same dose and schedule produced 100% CR's and 80% CR's/20% PR's, respectively."}, "[2]": {"assay": "Body weight of mice bearing subcutaneous HEK-CCK2R tumors during treatment", "assay_type": "in vivo", "details": "2 μmol/kg, TIW×2 weeks", "description": "(▪) control; (▴) EC1873; (●) EC1868; (∘) EC1947.\nas §2"}, "HEK-CCK2R cells [3]": {"test_system": "HEK-CCK2R cells", "assay": "In vitro study of conjugates versus competitor, [3H]thymidine incorporation", "assay_type": "cell-based", "description": "as §1, with “(EC1812 or EC1868)+/−10 μM of CCK2R binding competitor (Re-EC1786 or Re-EC1825).” for “(n=4).”"}, "[4]": {"details": "three times a week for two weeks"}}, "note": "Like-named read-outs stand apart in the source and are kept apart here.", "data": [{"smiles": "CCCC(=O)OCN(C(=O)[C@@H](NC(=O)[C@H]1CCCCN1C)C(C)CC)[C@H](C[C@@H](OC(C)=O)c1nc(C(=O)N[C@@H](Cc2ccc(O)cc2)C[C@H](C)C(=O)NNC(=O)OCCSSC[C@H](NC(=O)[C@H](CC(=O)O)NC(=O)[C@@H](N)CNC(C)=O)C(=O)NCCOCCOCCOCCOCCOCCOCCOCCOCCOCCOCCOCCOCCC(=O)N[C@@H](CC(=O)O)C(=O)N[C@@H](Cc2ccc(O)cc2)C(=O)N[C@@H](CCSC)C(=O)NCC(=O)N[C@@H](Cc2c[nH]c3ccccc23)C(=O)N[C@@H](CCSC)C(=O)N[C@@H](CC(=O)O)C(=O)N[C@@H](Cc2ccccc2)C(N)=O)cs1)C(C)C", "note": "(some centres unmarked) [EC1873]", "values": [{"measurement": "IC50", "setting": "HEK-CCK2R cells [1]", "value": 2.8, "unit": "nM"}, {"measurement": "CR's", "setting": "HEK-CCK2R tumor cells; [4]", "value": 80, "unit": "%"}, {"measurement": "PR's", "setting": "HEK-CCK2R tumor cells; [4]", "value": 20, "unit": "%"}, {"measurement": "weight loss", "setting": "[2]", "value": "do not induce weight loss"}]}, {"smiles": "CCCC(=O)OCN(C(=O)[C@@H](NC(=O)[C@H]1CCCCN1C)C(C)CC)[C@H](C[C@@H](OC(C)=O)c1nc(C(=O)N[C@@H](Cc2ccc(O)cc2)C[C@H](C)C(=O)NNC(=O)OCCSSC[C@H](NC(=O)[C@H](CCC(=O)NC[C@@H](O)[C@H](O)[C@@H](O)[C@@H](O)CO)NC(=O)[C@H](CCC(=O)O)NC(=O)[C@H](CCC(=O)NC[C@@H](O)[C@H](O)[C@@H](O)[C@@H](O)CO)NC(=O)[C@H](CCC(=O)O)NC(=O)CCCCCCCNC(=O)c2cccc(NC(=O)N[C@@H]3CN(C4CCCCC4)c4ccccc4N(CC(=O)C(C)(C)C)C3=O)c2)C(=O)O)cs1)C(C)C", "note": "(some centres unmarked) [EC1812]", "values": [{"measurement": "cytotoxic activity on HEK-CCK2R, in words", "setting": "HEK-CCK2R cells [3]", "value": "relatively inactive"}, {"measurement": "IC50", "setting": "HEK-CCK2R cells [3]; + 10 μM competitor Re-EC1786, read-out: IC50 in presence of Re-EC1786", "value": 262, "unit": "nM"}, {"measurement": "IC50", "setting": "HEK-CCK2R cells [3]; conjugate alone, read-out: IC50", "value": 225, "unit": "nM"}, {"measurement": "competition of activity by excess Re-EC1786, in words", "setting": "HEK-CCK2R cells [3]; excess Re-EC1786", "value": "not competeable"}]}, {"smiles": "CCCC(=O)OCN(C(=O)[C@@H](NC(=O)[C@H]1CCCCN1C)C(C)CC)[C@H](C[C@@H](OC(C)=O)c1nc(C(=O)N[C@@H](Cc2ccc(O)cc2)C[C@H](C)C(=O)NNC(=O)OCCSSC[C@H](NC(=O)[C@H](CC(=O)O)NC(=O)[C@@H](N)CNC(C)=O)C(=O)NCCOCCOCCOCCC(=O)N[C@@H](CC(=O)O)C(=O)N[C@@H](Cc2ccc(O)cc2)C(=O)N[C@@H](CCSC)C(=O)NCC(=O)N[C@@H](Cc2c[nH]c3ccccc23)C(=O)N[C@@H](CCSC)C(=O)N[C@@H](CC(=O)O)C(=O)N[C@@H](Cc2ccccc2)C(N)=O)cs1)C(C)C", "note": "(some centres unmarked) [EC1868]", "values": [{"measurement": "IC50", "setting": "HEK-CCK2R cells [1]", "value": 0.2, "unit": "nM"}, {"measurement": "CR, number of animals, second figure of {PR, CR, cure}", "setting": "HEK-CCK2R tumor cells; TIW×2 weeks, n=5", "value": 5}, {"measurement": "CR's", "setting": "HEK-CCK2R tumor cells; [4]", "value": 100, "unit": "%"}, {"measurement": "weight loss", "setting": "[2]", "value": "do not induce weight loss"}, {"measurement": "cytotoxic activity on HEK-CCK2R, in words", "setting": "HEK-CCK2R cells [3]", "value": "potent, competeable cytotoxic activity"}]}, {"smiles": "CCCC(=O)OCN(C(=O)[C@@H](NC(=O)[C@H]1CCCCN1C)C(C)CC)[C@H](C[C@@H](OC(C)=O)c1nc(C(=O)N[C@@H](Cc2ccc(O)cc2)C[C@H](C)C(=O)NNC(=O)OCSSC[C@H](NC(=O)[C@H](CC(=O)O)NC(=O)[C@@H](N)CNC(C)=O)C(=O)NCCOCCOCCC(=O)N[C@@H](CC(=O)O)C(=O)N[C@@H](Cc2ccc(OS(=O)(=O)O)cc2)C(=O)N[C@@H](CCSC)C(=O)NCC(=O)N[C@@H](Cc2c[nH]c3ccccc23)C(=O)N[C@@H](CCSC)C(=O)N[C@@H](CC(=O)O)C(=O)N[C@@H](Cc2ccccc2)C(N)=O)cs1)C(C)C", "note": "(some centres unmarked) [EC1947]", "values": [{"measurement": "IC50", "setting": "HEK-CCK2R cells [1]", "value": 0.9, "unit": "nM"}, {"measurement": "CR's", "setting": "HEK-CCK2R tumor cells; [4]", "value": 20, "unit": "%"}, {"measurement": "cures", "setting": "HEK-CCK2R tumor cells; [4]", "value": 80, "unit": "%"}, {"measurement": "weight loss", "setting": "[2]", "value": "do not induce weight loss"}]}]}
